{
  "source": "patent US9687493B2",
  "about": "“Use of NK-1 receptor antagonists for treating hypomagnesemia, neurogenic inflammation, and cardiac dysfunction associated with EGFR-blocking drugs” (THE GEORGE WASHINGTON UNIVERSITY, priority 2014, dated 2017)",
  "key": {"[1]": {"experiment": "Plasma magnesium by atomic absorption flame emission spectroscopy", "assay_type": "in vivo, Sprague-Dawley rats", "conditions": "for change in circulating Mg level vs time-matched control: erlotinib starting 10 mg/kg/day oral", "description": "Individually-housed rats were weighed and food consumption recorded daily to obtain actual drug dosage: time-range average erlotinib dose over 9 weeks was 7.07 mg/kg/day, and time-range average Emend dose over 9 weeks was 1.41 mg/kg/day.\nMagnesium levels in 1:50 or 1:100 diluted, acidified (nitric acid) plasma samples were determined by atomic absorption flame emission spectroscopy (wavelength=285.2 nm) using an AA-6200 Shimadzu spectrophotometer (Columbia, Md.) as described (13). Values obtained from standard curves were mg/dl, and reported as % of control.\nPlasma was assessed for magnesium by flame emission atomic absorption spectroscopy (FIG. 2A). Data are the means±SEM of 5-7 animals per group. * p<0.05, **p<0.01 and # p<0.001 compared with the time-matched control group; +p<0.055 versus erlotinib alone. Plasma SP (FIG. 2B) was assessed by a colorimetric ELISA kit."}, "[2]": {"description": "At periodic intervals, blood was collected (˜0.5 ml) aseptically from the tail of anaesthetized rats (2% isoflurane, EZ Anesthesia Chamber with nose cone)(13, 14) in sterile microtainer plasma separator tubes containing heparin and the protease inhibitor, aprotinin (Sigma Chemicals, St. Louis Mo.) to yield final blood concentrations of 10.74 units/ml and 0.016 units/ml, respectively. For subsequent samplings, the scab was carefully removed, and the process was repeated. Plasma was obtained after centrifugation (12,000 rpm, 2 min, RT, IDEXX StatSpin VT, Iris International, Inc., Westwood, Mass.). Tail bleed samples were used for assessment of plasma Mg, and substance P levels. Sacrifice blood samples (˜8 ml collected in heparin plus aprotinin containing BD vacutainer SST tubes) were taken from anaesthetized, heparinized (0.3-0.4 ml 358 units/ml heparin in 0.9% NaCl, i.p.) rats from either the vena cava or by cardiac puncture, and were centrifuged (3,500 rpm, 10 min, RT). […]\nHypomagnesemia alone in rodents can promote neutrophil free radical generating activity (Mak et al., Exp. & Clin. Cardiol. 2011, 16(4):121-124; Mak et al., Magnesium Res 2003, 16(2):91-97). […] Circulating neutrophil basal superoxide generating activity was determined as SOD-inhibitable reduction of cytochrome c (FIG. 3A). Plasma 8-isoprostane was assessed by a colorimetric ELISA kit (FIG. 3B). […]"}, "[3]": {"conditions": "for improvement of AoPmax: NS", "description": "Anesthetized rats were subjected to echocardiography periodically during the treatment regimens using a GE VingMed System Five Echocardiogram System (12, 13, 17, and 18). Heart rate and rectal temperature (35.9-37.5° C.) were monitored constantly during the imaging. Animals were placed on a warming platform with paws taped down to limit any motion during imaging, and a sterile eye lubricant was applied to prevent eye drying during the procedure. Hair over the thorax was removed first with an electric clipper, and then with a depilatory cream (<2 min exposure). Animals were imaged (10 MHz probe) for about 20 minutes at an image depth of 3 cm. This imaging system allows for both cardiac structure and function evaluation in rats. Systolic function, measured as % fractional shortening (% FS) using M-mode imaging, and left ventricular ejection fraction (LVEF), calculated from M-mode measurements, were assessed. Key anatomical parameters (IVSd & s=inter-ventricular septum diameter in diastole and systole; and LVPWd & s=LV posterior wall thickness in diastole or systole) were measured to assess the presence of dilated or hypertrophic cardiomyopathy. Measurements of the aortic and pulmonary artery diameters were used to calculate stroke volumes. Aortic pressure max (AoPmax) was assessed; and spectral Doppler velocities were measured for the pulmonic and aortic outflows to calculate cardiac output (CO), and for the mitral valve inflows to assess ventricular diastolic function (mitral valve E and A wave velocities and the E/A ratio were obtained). After echocardiography, animals were placed in room air until awake, and observed until fully recovered.\nRats treated with erlotinib (starting 10 mg/kg/day, oral) and/or Emend (aprepitant, starting 2 mg/kg/day, oral) received echocardiography at the indicated intervals (FIGS. 5A-5C).\nTable 3 legend: Interventricular septum dimension in diastole (IVSd) and systole (IVSs); and LV posterior wall thickness in diastole (LVPWd) and systole (LVPWs). Rats treated with erlotinib (starting 10 mg/kg/day, oral) and/or Emend (aprepitant, starting 2 mg/kg/day, oral) received echocardiography at the indicated intervals. Values (% change) for erlotinib±Emend rats were compared to time-matched controls, and are means±SEM of 5-7 rats per group."}, "[4]": {"conditions": "male, Sprague-Dawley, rat, in vivo, 9 weeks", "description": "Male Sprague-Dawley rats (˜150 g) were purchased from Hilltop Lab Animals (Scottdale, Pa.). After one week of quarantine, the rats were divided into 4 groups: (1) Control group (N=5) receiving Mg normal diet (25 mmole Mg Oxide/kg food); (2) Erlotinib treated group (N=5, receiving erlotinib at a starting dose of 10 mg/kg/day in the diet); (3) Erlotinib+Emend group (N=7, receiving erlotinib plus Emend at a starting dose of 2 mg/kg/day in the diet); and (4) Emend alone group (N=5)."}, "cancer cells": {"tested_on": "cancer cells", "conditions": "through NOX-4 up-regulation; cited from earlier work"}, "[5]": {"conditions": "7 weeks, Emend co-treatment of erlotinib-exposed rats"}, "[6]": {"conditions": "7 weeks, Emend co-treatment, p<0.05 vs erlotinib alone"}, "[7]": {"conditions": "9 weeks, Emend co-treatment, p<0.02"}, "[8]": {"conditions": "male, Sprague-Dawley, rat, in vivo"}, "[9]": {"conditions": "male, Sprague-Dawley, rat, in vivo, 7 weeks"}, "[10]": {"conditions": "male, Sprague-Dawley, rat, in vivo, 9 weeks"}},
  "note": "Like-named read-outs stand apart in the source and are kept apart here.",
  "data": [
    {"smiles": "C[C@@H](O[C@H]1OCCN(Cc2n[nH]c(=O)[nH]2)[C@H]1c1ccc(F)cc1)c1cc(C(F)(F)F)cc(C(F)(F)F)c1", "note": "[Emend, aprepitant]", "values": [
      {"measurement": "attenuation of severity of hypomagnesemia due to erlotinib", "setting": "[1]; 9 week, Emend (starting 2 mg/kg/day) co-treatment with erlotinib", "value": "~42", "unit": "%"},
      {"measurement": "effect on elevation of total plasma isoprostane caused by erlotinib", "setting": "[2]; 9 weeks, Emend co-treatment with erlotinib", "value": "completely blocked"},
      {"measurement": "improvement of LV % FS compared to erlotinib alone", "setting": "[3]; 7 weeks, Emend co-treatment", "value": 65.1, "unit": "%"},
      {"measurement": "improvement of LVPWs", "setting": "[3]; 7 weeks, Emend co-treatment", "value": 53.4, "unit": "%"},
      {"measurement": "protection against erlotinib-induced decline in cardiac output", "setting": "[3]; 7 weeks, Emend co-treatment", "value": 64.9, "unit": "%"},
      {"measurement": "improvement of IVSd", "setting": "[3]; [5]", "value": 48.2, "unit": "%"},
      {"measurement": "improvement of LVEF compared to erlotinib alone", "setting": "[3]; [5]", "value": 71.3, "unit": "%"},
      {"measurement": "improvement of AoPmax", "setting": "[3]; 7 weeks, Emend co-treatment", "value": 86, "unit": "%"},
      {"measurement": "improvement of IVSs", "setting": "[3]; [6]", "value": 76, "unit": "%"},
      {"measurement": "improvement of LVPWd", "setting": "[3]; [6]", "value": 59.1, "unit": "%"},
      {"measurement": "improvement of IVSd", "setting": "[3]; 9 weeks, Emend co-treatment", "value": 42.8, "unit": "%"},
      {"measurement": "improvement of IVSs", "setting": "[3]; 9 weeks, Emend co-treatment", "value": 62, "unit": "%"},
      {"measurement": "improvement of LVPWd", "setting": "[3]; 9 weeks, Emend co-treatment", "value": 49.8, "unit": "%"},
      {"measurement": "improvement of LVPWs", "setting": "[3]; 9 weeks, Emend co-treatment", "value": 58.2, "unit": "%"},
      {"measurement": "improvement of AoPmax", "setting": "[3]; 9 weeks, Emend co-treatment", "value": 64, "unit": "%"},
      {"measurement": "improvement of LV % FS compared to erlotinib alone", "setting": "[3]; [7]", "value": 86.4, "unit": "%"},
      {"measurement": "improvement of LVEF compared to erlotinib alone", "setting": "[3]; [7]", "value": 87.2, "unit": "%"},
      {"measurement": "protection against erlotinib-induced decline in cardiac output", "setting": "[3]; 9 weeks, Emend co-treatment, p<0.02 vs ERL alone", "value": 75.4, "unit": "%"},
      {"measurement": "improvement of mitral valve E/A ratio compared to erlotinib alone", "setting": "[3]; 9 weeks, Emend co-treatment, p<0.05", "value": 84.6, "unit": "%"},
      {"measurement": "impact on LV systolic, diastolic, hemodynamic and anatomical parameters compared to time-paired controls", "setting": "[3]; rat, in vivo", "value": "did not have any significant impact"}
    ]},
    {"smiles": "C#Cc1cccc(Nc2ncnc3cc(OCCOC)c(OCCOC)cc23)c1", "note": "[Erlotinib, erlotinib]", "values": [
      {"measurement": "change in circulating Mg level vs time-matched control", "setting": "[1]; 1.5 week", "value": "−2", "unit": "%"},
      {"measurement": "change in circulating Mg level vs time-matched control", "setting": "[1]; 9 weeks, p<0.001", "value": "−26", "unit": "%"},
      {"measurement": "change in circulating Mg level vs time-matched control", "setting": "[1]; wk 3", "value": "−9", "unit": "%"},
      {"measurement": "change in circulating Mg level vs time-matched control", "setting": "[1]; wk 5", "value": "−13", "unit": "%"},
      {"measurement": "change in circulating Mg level vs time-matched control", "setting": "[1]; wk 7", "value": "−16", "unit": "%"},
      {"measurement": "increase of total plasma 8-isoprostane content", "setting": "[2]; rat, in vivo", "value": 210, "unit": "%"},
      {"measurement": "decline in IVSd", "setting": "[3]; [8]", "value": "12.8-16.8%"},
      {"measurement": "decline in LVPWs", "setting": "[3]; [8]", "value": "9.3-21.9%"},
      {"measurement": "fall in LVPWd", "setting": "[3]; [8]", "value": "15.6-20.9%"},
      {"measurement": "lower IVSs", "setting": "[3]; [8]", "value": "11.4-17.5%"},
      {"measurement": "LV % fractional shortening (LV % FS) lower than time-matched control", "setting": "[3]; [9]", "value": 17.2, "unit": "%"},
      {"measurement": "LV ejection fraction (LVEF) lower than time-matched control", "setting": "[3]; [9]", "value": 10.4, "unit": "%"},
      {"measurement": "aortic pressure maximum lower than control", "setting": "[3]; [9]", "value": 17.1, "unit": "%"},
      {"measurement": "cardiac output reduced vs control", "setting": "[3]; [9]", "value": 18.8, "unit": "%"},
      {"measurement": "LV % fractional shortening (LV % FS) lower than time-matched control", "setting": "[3]; [10]", "value": 17.7, "unit": "%"},
      {"measurement": "LV ejection fraction (LVEF) lower than time-matched control", "setting": "[3]; [10]", "value": 11, "unit": "%"},
      {"measurement": "aortic pressure maximum lower than control", "setting": "[3]; [10]", "value": 27.5, "unit": "%"},
      {"measurement": "cardiac output reduced vs control", "setting": "[3]; [10]", "value": 20.3, "unit": "%"},
      {"measurement": "mitral valve E/A ratio reduction", "setting": "[3]; [10]", "value": 17.5, "unit": "%"},
      {"measurement": "changes in cardiac contractile function", "setting": "[3]; rat, in vivo", "value": "No significant changes"},
      {"measurement": "mitral valve E/A ratio", "setting": "[3]; rat, in vivo", "value": "not significantly affected"},
      {"measurement": "number of animals that developed facial lesion", "setting": "[4]", "value": 5},
      {"measurement": "cellular oxidative stress", "setting": "cancer cells", "value": "can provoke cellular oxidative stress"}
    ]}
  ]
}
